Measured values: US8466107B2, “Fibrin-binding peptides and conjugates thereof” (Bracco Imaging SpA, priority 2006, dated 2013)
Bridge positions count the residues as written; N and C are the ends. Square brackets hold non-standard residues; d marks the D form. Peptide text beside a SMILES is read from it. * marks the point of attachment. 5FAM = O=C1OC2(c3ccc(O)cc3Oc3cc(O)ccc32)c2ccc(C(=O)*)cc21; Cha = N[C@@H](CC1CCCCC1)C(=O)O; AEEA = NCCOCCOCC(=O)O

Molecular target: DDE (fibrin-derived polypeptide) (Homo sapiens, UniProt P02671+P02675+P02679)
Sequence (P02671 124-216): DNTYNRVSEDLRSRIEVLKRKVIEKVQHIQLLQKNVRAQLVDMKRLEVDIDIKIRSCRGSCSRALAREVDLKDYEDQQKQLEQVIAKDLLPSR
Sequence (P02675 164-491): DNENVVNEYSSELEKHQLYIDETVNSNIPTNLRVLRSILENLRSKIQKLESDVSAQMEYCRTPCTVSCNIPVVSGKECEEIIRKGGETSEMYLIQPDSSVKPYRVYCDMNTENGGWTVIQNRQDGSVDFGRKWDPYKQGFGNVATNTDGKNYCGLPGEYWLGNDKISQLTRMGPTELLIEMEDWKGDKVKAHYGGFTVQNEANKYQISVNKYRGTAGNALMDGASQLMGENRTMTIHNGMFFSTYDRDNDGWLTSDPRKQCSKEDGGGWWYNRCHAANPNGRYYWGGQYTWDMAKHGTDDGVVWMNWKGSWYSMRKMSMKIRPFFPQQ
Sequence (P02679 114-432): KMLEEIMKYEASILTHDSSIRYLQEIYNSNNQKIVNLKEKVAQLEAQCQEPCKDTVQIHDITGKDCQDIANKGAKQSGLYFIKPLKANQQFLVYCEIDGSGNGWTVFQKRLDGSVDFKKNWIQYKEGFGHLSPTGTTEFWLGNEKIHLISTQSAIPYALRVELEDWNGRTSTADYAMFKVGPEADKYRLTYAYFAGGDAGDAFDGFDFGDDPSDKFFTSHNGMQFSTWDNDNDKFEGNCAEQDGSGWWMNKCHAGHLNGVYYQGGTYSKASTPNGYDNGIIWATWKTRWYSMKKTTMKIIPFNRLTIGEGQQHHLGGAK
Sequence (P02671 36-97): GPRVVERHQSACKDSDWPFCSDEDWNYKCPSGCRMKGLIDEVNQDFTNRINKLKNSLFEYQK
Sequence (P02675 45-152): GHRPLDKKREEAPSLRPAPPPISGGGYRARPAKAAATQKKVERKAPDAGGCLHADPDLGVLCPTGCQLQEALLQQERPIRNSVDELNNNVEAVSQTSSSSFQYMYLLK
Sequence (P02679 27-88): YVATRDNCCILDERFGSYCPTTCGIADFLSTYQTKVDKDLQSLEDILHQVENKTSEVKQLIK
Test: Direct binding fluorescence polarization (FP) assay using 5-carboxyfluorescein labeled peptides
Settings: 20 nM CF5-labeled peptide, serial dilutions of DDE, anisotropy read at 485 nm; read-out: KD (μM) Direct Binding (n = 2)
Description: Assay of Fibrin Binding Peptides by Direct Binding Fluorescence Polarization (FP) Procedure using 5-Carboxyfluoresein Labeled Peptides
Protocol • 1. Prepare 1 mL of 40 nM solution of 5-carboxyfluorescein-labeled peptide in HEPES dilution buffer (HDB) with 0.01% Tween. • HDB (10 mM HEPES, 150 mM […], 2 mM CaCl2) • 2. Dilute the 40 nM solution to obtain 1 ml of a 20 nM solution of the test 5-carboxyfluorescein-labeled peptide. • 3. Prepare a solution of DDE at a concentration that will be approximately 5-10 fold greater than the expected KD. For the described assay an 8 μM concentration of DDE was prepared. • 4. Mix equal volumes of the DDE solution with the 40 nM peptide solution. • 5. Prepare serial dilutions of DDE in a solution consisting of the binding buffer with 0.01% Tween20 and 20 nM of the 5-carboxyfluorescein-labeled peptide. • 6. Make dilutions as shown in the following table in a Labsystems 384-well microplate and mix by repeated aspiration and dispensing of the solution into the wells. • 7. Centrifuge the plate at 2000 RPM for 5 minutes to remove air pockets in the wells. • 8. Read in Tecan Polarion Plate Reader at 485 nm to obtain the anisotropy value.
The anisotropy (in mP—millipolarization units) vs the logarithm of the concentration (micromoles/liter) of the receptor concentration is graphed. The dissociation constant is obtained at the midpoint of the curve whose extrema are Afree and Abound where Afree is the anisotropy of the free peptide and Abound is the anisotropy of the fully bound peptide. The theory, methods of operation and mathematical analysis is described in, for example, the following reference: Fluorescence Polarization Technical Resource Guide Technical Resource Guide 4th Edn. Invitrogen Corporation•501 Charmany Drive•Madison, Wis. 53719 USA. Particularly, the mathematical analysis of the data and obtaining binding constants is described in Chapter 8: Analysis of FP Binding Data pp 8-2-8-7.

| Structure (SMILES) | Kd [µM] |
| --- | --- |
| CC(=O)N[C@@H](Cc1c[nH]c2ccccc12)C(=O)N[C@@H](CCC(N)=O)C(=O)N1CCC[C@H]1C(=O)N[C@H]1CSSC[C@@H](C(=O)N[C@@H](Cc2c[nH]c3ccccc23)C(=O)N[C@@H](CC(=O)O)C(=O)N2CCC[C@H]2C(=O)NCC(=O)NCC(=O)NCC(=O)N[C@@H](CCCCNC(=O)c2ccc3c(c2)C(=O)OC32c3ccc(O)cc3Oc3cc(O)ccc32)C(N)=O)NC(=O)[C@H](CC2CCCCC2)NC(=O)[C@H]([C@@H](C)O)NC(=O)[C@H](Cc2c[nH]c3ccccc23)NC(=O)[C@H](CO)NC(=O)[C@H](CCC(=O)O)NC(=O)[C@H](C)NC(=O)[C@@H]2CCCN2C1=O [Seq042-CF5, Ac-WQPC*PAESWT-Cha-C*WDPGGGK(CF5)-NH2] (Ac-WQPCPAESWT[Cha]CWDPGGGK(5FAM)-NH2; disulfide 4-12) | 0.17 |
| CC(=O)N[C@@H](CCCNC(=N)N)C(=O)N[C@@H](Cc1c[nH]c2ccccc12)C(=O)N[C@@H](CCC(N)=O)C(=O)N1CCC[C@H]1C(=O)N[C@H]1CSSC[C@@H](C(=O)N[C@@H](Cc2c[nH]c3ccccc23)C(=O)N[C@@H](CC(=O)O)C(=O)N2CCC[C@H]2C(=O)NCC(=O)NCC(=O)NCC(=O)N[C@@H](CCCCNC(=O)c2ccc3c(c2)C(=O)OC32c3ccc(O)cc3Oc3cc(O)ccc32)C(N)=O)NC(=O)[C@H](Cc2ccccc2)NC(=O)[C@H]([C@@H](C)O)NC(=O)[C@H](Cc2c[nH]c3ccccc23)NC(=O)[C@H](CO)NC(=O)[C@H](CCC(=O)O)NC(=O)[C@H](Cc2c[nH]c3ccccc23)NC(=O)[C@@H]2CCCN2C1=O [Seq048-CF5] (Ac-RWQPCPWESWTFCWDPGGGK(5FAM)-NH2; disulfide 5-13) | 0.11 |

Further lines, results first:

| Kd [µM] | Structure (SMILES) |
| --- | --- |
| 0.57 | CC(=O)N[C@@H](CO)C(=O)NCC(=O)N[C@@H](CO)C(=O)NCC(=O)NCCOCCOCC(=O)N[C@@H](Cc1c[nH]c2ccccc12)C(=O)N[C@@H](CCC(N)=O)C(=O)N1CCC[C@H]1C(=O)N[C@H]1CSSC[C@@H](C(=O)N[C@@H](Cc2c[nH]c3ccccc23)C(=O)N[C@@H](CC(=O)O)C(=O)N2CCC[C@H]2C(=O)NCC(=O)NCC(=O)NCC(=O)N[C@@H](CCCCNC(=O)c2ccc3c(c2)C(=O)OC32c3ccc(O)cc3Oc3cc(O)ccc32)C(N)=O)NC(=O)[C@H](Cc2ccccc2)NC(=O)[C@H]([C@@H](C)O)NC(=O)[C@H](Cc2c[nH]c3ccccc23)NC(=O)[C@H](CO)NC(=O)[C@H](CCC(=O)O)NC(=O)[C@H](C)NC(=O)[C@@H]2CCCN2C1=O [Seq045-CF5] (Ac-SGSG[AEEA]WQPCPAESWTFCWDPGGGK(5FAM)-NH2; disulfide 9-17) |
| 0.22 | CC(=O)N[C@@H](CCCNC(=N)N)C(=O)N[C@@H](CCCNC(=N)N)C(=O)NCC(=O)NCC(=O)N[C@@H](Cc1c[nH]c2ccccc12)C(=O)N[C@@H](CCC(N)=O)C(=O)N1CCC[C@H]1C(=O)N[C@H]1CSSC[C@@H](C(=O)N[C@@H](Cc2c[nH]c3ccccc23)C(=O)N[C@@H](CC(=O)O)C(=O)N2CCC[C@H]2C(=O)NCC(=O)NCC(=O)NCC(=O)N[C@@H](CCCCNC(=O)c2ccc3c(c2)C(=O)OC32c3ccc(O)cc3Oc3cc(O)ccc32)C(N)=O)NC(=O)[C@H](Cc2ccccc2)NC(=O)[C@H]([C@@H](C)O)NC(=O)[C@H](Cc2c[nH]c3ccccc23)NC(=O)[C@H](CO)NC(=O)[C@H](CCC(=O)O)NC(=O)[C@H](C)NC(=O)[C@@H]2CCCN2C1=O [Seq046-CF5] (Ac-RRGGWQPCPAESWTFCWDPGGGK(5FAM)-NH2; disulfide 8-16) |
| 0.21 | CC(=O)N[C@@H](CCCNC(=N)N)C(=O)N[C@@H](Cc1c[nH]c2ccccc12)C(=O)N[C@@H](CCC(N)=O)C(=O)N1CCC[C@H]1C(=O)N[C@H]1CSSC[C@@H](C(=O)N[C@@H](Cc2c[nH]c3ccccc23)C(=O)N[C@@H](CC(=O)O)C(=O)N2CCC[C@H]2C(=O)NCC(=O)NCC(=O)NCC(=O)N[C@@H](CCCCNC(=O)c2ccc3c(c2)C(=O)OC32c3ccc(O)cc3Oc3cc(O)ccc32)C(N)=O)NC(=O)[C@H](Cc2ccccc2)NC(=O)[C@H]([C@@H](C)O)NC(=O)[C@H](Cc2c[nH]c3ccccc23)NC(=O)[C@H](CO)NC(=O)[C@H](CCC(=O)O)NC(=O)[C@H](C)NC(=O)[C@@H]2CCCN2C1=O [Seq049-CF5] (Ac-RWQPCPAESWTFCWDPGGGK(5FAM)-NH2; disulfide 5-13) |
